The test system of the experiment is Metallothionein 2A (MT2A) mRNA. As to the kind of experiment: Stimulation of Metallothioneins: MT2A mRNA in normal human dermal fibroblasts (QuantiGene multiplex branched DNA assay). The format is cell-based. As to conditions: 24 hours, vs ethanol vehicle control, p<0.05. The protocol:
Normal human dermal fibroblasts were cultured in 96 well tissue culture treated plates, containing appropriate culture medium. Stock solution of cis-6 nonenol was made in ethanol. Cells were treated with test material or ethanol vehicle control diluted in growth medium for 24 hours in a humidified 37° C. incubator with 10% CO2. After incubation, growth medium from each plate was removed and 100 μl of lysis buffer was added to the wells and placed in 37° C. incubator with 10% CO2 for 30 minutes. At the end of incubation, the cells were collected in freezer plates and placed in −80° C. freezer, until analysis. Changes in mRNA for Metallothionein 2A (MT2A) after treatment were analysed using Panomics' QuantiGene® multiplex assay that employs a branched DNA technology. Percent increase in mRNA for MT2A was calculated by comparing the test results to that of the vehicle control. […] All results reported are statistically significant at p<0.05.

With `CC/C=C\CCCCCO` [Cis-6-nonenol, cis-6-nonenol], the “stimulation in mRNA levels for Metallothionein 2A” value by setting is: (0.001% cis-6-nonenol) 97%; (0.01% cis-6-nonenol) 96%.
